Results published in patent US8710233B2 (Gruenenthal GmbH, priority 2005, dated 2014).

Experiments:
[1] = molecular target: VR1/TRPV1 receptor (Homo sapiens, UniProt Q8NER1); experiment: IC50 (human) after pH stimulus; format: cell-based; details: for IC50: table 4; for inhibition at 5 µM / inhibition at 10 µM / inhibition at 0.1 µM / inhibition at 1 µM: read-out: inhibition in percent, IC50 (human) after pH stimulus
[2] = molecular target: T1, vanilloid receptor (VR1) (Homo sapiens, UniProt Q8NER1); experiment: FLIPR Ca2+ influx assay on CHO K1 cells transfected with the VR1 gene (pharmacological method II); format: cell-based; details: table 4; capsaicin; read-out: Ki (human) Cap.
T1 construct: expressed in transfected cells; host or cells: CHO K1 cells (ECACC), stably transfected
T1 sequence (Q8NER1 whole entry): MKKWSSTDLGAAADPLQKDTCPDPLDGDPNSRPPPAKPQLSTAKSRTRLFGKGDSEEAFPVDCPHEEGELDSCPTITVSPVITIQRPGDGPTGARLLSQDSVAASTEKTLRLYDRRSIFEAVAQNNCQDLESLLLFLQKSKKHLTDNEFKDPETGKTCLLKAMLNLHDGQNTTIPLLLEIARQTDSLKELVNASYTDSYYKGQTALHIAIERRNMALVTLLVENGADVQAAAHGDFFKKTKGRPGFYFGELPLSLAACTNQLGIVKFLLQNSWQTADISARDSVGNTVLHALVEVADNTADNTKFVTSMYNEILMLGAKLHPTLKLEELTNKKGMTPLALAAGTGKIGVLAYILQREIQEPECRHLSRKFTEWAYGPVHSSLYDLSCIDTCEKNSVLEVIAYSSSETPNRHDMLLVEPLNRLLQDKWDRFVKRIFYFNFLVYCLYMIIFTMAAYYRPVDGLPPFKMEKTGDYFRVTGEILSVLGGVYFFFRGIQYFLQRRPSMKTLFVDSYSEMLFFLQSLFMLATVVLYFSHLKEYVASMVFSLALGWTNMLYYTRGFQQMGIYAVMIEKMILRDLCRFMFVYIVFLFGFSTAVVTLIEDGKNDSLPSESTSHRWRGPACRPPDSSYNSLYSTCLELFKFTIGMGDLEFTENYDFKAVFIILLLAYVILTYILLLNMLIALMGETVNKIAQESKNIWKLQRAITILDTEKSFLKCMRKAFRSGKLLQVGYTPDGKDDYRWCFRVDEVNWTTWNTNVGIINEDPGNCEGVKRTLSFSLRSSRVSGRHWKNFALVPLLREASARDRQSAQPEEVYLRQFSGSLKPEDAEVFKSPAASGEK
Excerpt: In this FLIPR assay, the influx of Ca^2+ is quantified with the assistance of a Ca^2+-sensitive dye (type Fluo-4, Molecular Probes Europe BV, Leiden, Netherlands) in a Fluorescent Imaging Plate Reader (FLIPR, Molecular Devices, Sunnyvale, USA) as described below.
II. Functional Investigations on the Vanilloid Receptor (VR1)
The agonistic or antagonistic action of the substances to be investigated on the vanilloid receptor (VR1) may also be determined with the following assay. According to this assay, the influx of Ca^2+ through the channel is quantified with the assistance of a Ca^2+-sensitive dye (type Fluo-4, Molecular Probes Europe BV, Leiden, Netherlands) in a Fluorescent Imaging Plate Reader (FLIPR, Molecular Devices, Sunnyvale, USA).
Chinese hamster ovary cells (CHO K1 cells, European Collection of Cell Cultures (ECACC), Great Britain) are stably transfected with the VR1 gene. For functional investigations, these cells are plated out onto poly-D-lysine-coated, black 96 well plates with a clear bottom (BD Biosciences, Heidelberg, Germany) at a density of 25,000 cells/well. The cells are incubated overnight at 37° C. and 5% CO2 in a culture medium (Ham's Nutrient Mixture F12, 10 vol. % FCS (foetal calf serum), 18 μg/mL L-proline). On the following day, the cells are incubated with Fluo-4 (Fluo-4 2 μM, Pluronic F127 0.01 vol. %, Molecular Probes in HBSS (Hank's buffered saline solution), Gibco Invitrogen GmbH, Karlsruhe, Germany) for 30 minutes at 37° C. The plates are then washed 3 times with HBSS buffer and, after a further 15 minutes' incubation at room temperature, used for […] measurement in the FLIPR. […] Quantification proceeds by measuring the highest fluorescence intensity (FC, fluorescence counts) over time.
The FLIPR protocol comprises 2 additions of substance. The substances to be tested (10 μM) are firstly pipetted onto the cells and Ca^2+ influx is compared with the control (capsaicin 10 μM) (% activation relative to the Ca^2+ signal after addition of 10 μM of capsaicin). After 5 minutes' incubation, 100 nM of capsaicin are added and the influx of Ca^2+ is again determined.
The percentage inhibition in comparison with the maximum achievable inhibition with 10 μM capsaicin is calculated.

VR1/TRPV1 receptor, sequence (Q8NER1 whole entry): as above

SMILES | IC50 [1] [nM] | Ki [2] [nM] | also measured
CC(C(=O)NCc1ccc(C(F)(F)F)nc1N1CC=C(c2ccccc2)CC1)c1ccc(NS(C)(=O)=O)c(F)c1 (stereo not drawn) [Example 317, 2-(3-fluoro-4-methylsulfonamido-phenyl)-N-(4-phenyl-6′-trifluoromethyl-3,6-dihydro-2H-[1,2′]bipyridinyl-3′-ylmethyl)-propionamide] | 43 | 1.7 | –
COc1ccc(-c2cc(C(F)(F)F)ccc2CNC(=O)C(C)c2ccc(NS(C)(=O)=O)c(F)c2)cc1 (stereo not drawn) [Example 321, 2-(3-fluoro-4-methylsulfonamido-phenyl)-N-(4′-methoxy-5-trifluoromethyl-biphenyl-2-ylmethyl)-propionamide] | 38 | 0.8 | –
CC(C(=O)NCc1ccc(C(F)(F)F)cc1-c1cccc(F)c1)c1ccc(NS(C)(=O)=O)c(F)c1 (stereo not drawn) [Example 323, 2-(3-fluoro-4-methylsulfonamido-phenyl)-N-(3′-fluoro-5-trifluoromethyl-biphenyl-2-ylmethyl)-propionamide] | – | 1.9 | inhibition at 0.1 µM [1]: 15%; inhibition at 1 µM ([1]; @ 1 μM, ne = no effect): 41%
CC(C(=O)NCc1ccc(C(F)(F)F)nc1N1CC=C(c2ccc(F)cc2)CC1)c1ccc(NS(C)(=O)=O)c(F)c1 (stereo not drawn) [Example 332, 2-(3-fluoro-4-methylsulfonamido-phenyl)-N-[4-(4-fluoro-phenyl)-6′-trifluoromethyl-3,6-dihydro-2H-[1,2′]bipyridinyl-3′-ylmethyl]-propionamide] | 159 | 2.4 | –
CCCC(CCC)Oc1nc(C(F)(F)F)ccc1CNC(=O)C(C)c1ccc(NS(C)(=O)=O)c(F)c1 (stereo not drawn) [Example 336, 2-(3-fluoro-4-methylsulfonamido-phenyl)-N-[2-(1-propyl-butoxy)-6-trifluoromethyl-pyridin-3-ylmethyl]-propionamide] | – | 0.7 | inhibition at 0.1 µM [1]: 35%; inhibition at 1 µM ([1]; @ 1 μM, ne = no effect): 50%
CC(C)CC(CC(C)C)Oc1nc(C(F)(F)F)ccc1CNC(=O)C(C)c1ccc(NS(C)(=O)=O)c(F)c1 (stereo not drawn) [Example 337, 2-(3-fluoro-4-methylsulfonamido-phenyl)-N-[2-(1-isobutyl-3-methyl-butoxy)-6-trifluoromethyl-pyridin-3-ylmethyl]-propionamide] | – | 0.7 | inhibition at 5 µM [1]: 6%; inhibition at 10 µM [1]: 30%
CC(C(=O)NCc1ccc(C(F)(F)F)nc1OC1CCC(C)(C)CC1)c1ccc(NS(C)(=O)=O)c(F)c1 (stereo not drawn) [Example 338, N-[2-(4,4-dimethyl-cyclohexyloxy)-6-trifluoromethyl-pyridin-3-ylmethyl]-2-(3-fluoro-4-methylsulfonamido-phenyl)-propionamide] | 140 | 0.9 | –
CC(C(=O)NCc1ccc(C(F)(F)F)nc1OC1CCC(C(F)(F)F)CC1)c1ccc(NS(C)(=O)=O)c(F)c1 (stereo not drawn) [Example 339, 2-(3-fluoro-4-methylsulfonamido-phenyl)-N-[6-trifluoromethyl-2-(4-trifluoromethyl-cyclohexyloxy)-pyridin-3-ylmethyl]-propionamide] | 14 | 0.3 | –
CC(C(=O)NCc1ccc(C(F)(F)F)nc1OC1CCC(C(F)(F)F)CC1)c1ccc(NS(C)(=O)=O)c(F)c1 (stereo not drawn) [Example 340, 2-(3-fluoro-4-methylsulfonamido-phenyl)-N-[6-trifluoromethyl-2-(4-trifluoromethyl-cyclohexyloxy)-pyridin-3-ylmethyl]-propionamide] | 279 | 1.2 | –
CC(C(=O)NCc1ccc(C(F)(F)F)nc1OC1CCN(C(=O)OC(C)(C)C)CC1)c1ccc(NS(C)(=O)=O)c(F)c1 (stereo not drawn) [Example 341, 4-(3-{[2-(3-fluoro-4-methylsulfonamido-phenyl)-propionylamino]-methyl}-6-trifluoromethyl-pyridin-2-yloxy)-piperidine-1-carbonic acid tert-butyl ester] | 293 | 1.3 | –

More lines, in order of falling Ki [2], values ahead:

IC50 [1] [nM] | Ki [2] [nM] | SMILES | also measured
– | 25.6 | COc1ccc(-c2nc(C(F)(F)F)ccc2CNC(=O)C(C)c2ccc(NS(C)(=O)=O)c(F)c2)cc1OC (stereo not drawn) [Example 326, N-[2-(3,4-dimethoxy-phenyl)-6-trifluoromethyl-pyridin-3-ylmethyl]-2-(3-fluoro-4-methylsulfonamido-phenyl)-propionamide] | inhibition at 10 µM [1]: 66%
1140 | 19.3 | CC(C(=O)NCc1ccc(C(F)(F)F)nc1NCC1CCN(C(=O)OC(C)(C)C)CC1)c1ccc(NS(C)(=O)=O)c(F)c1 (stereo not drawn) [Example 342, 4-[(3-{[2-(3-fluoro-4-methylsulfonamido-phenyl)-propionylamino]-methyl}-6-trifluoromethyl-pyridin-2-ylamino)-methyl]-piperidine-1-carbonic acid tert-butyl ester] | –
– | 17.5 | Cc1cc(C(F)(F)F)nc(N2CCC(C)CC2)c1CNC(=O)C(C)c1ccc(NS(C)(=O)=O)c(F)c1 (stereo not drawn) [Example 318, N-(4,4′-dimethyl-6′-trifluoromethyl-3,4,5,6-tetrahydro-2H-[1,2′]bipyridinyl-3′-ylmethyl)-2-(3-fluoro-4-methylsulfonamido-phenyl)-propionamide] | inhibition at 5 µM [1]: 4%; inhibition at 10 µM [1]: 32%
– | 13.8 | CC(C(=O)NCc1ccc(C(F)(F)F)cc1N1CCN(C2CCCCC2)CC1)c1ccc(NS(C)(=O)=O)c(F)c1 (stereo not drawn) [Example 319, N-[2-(4-cyclohexyl-piperazin-1-yl)-4-trifluoromethyl-benzyl]-2-(3-fluoro-4-methylsulfonamido-phenyl)-propionamide] | inhibition at 5 µM [1]: 38%; inhibition at 10 µM [1]: 54%
716 | 8.6 | COc1ccc(-c2cc(C(F)(F)F)ccc2CNC(=O)C(C)c2ccc(NS(C)(=O)=O)c(F)c2)cc1OC (stereo not drawn) [Example 325, N-(3′,4′-dimethoxy-5-trifluoromethyl-biphenyl-2-ylmethyl)-2-(3-fluoro-4-methylsulfonamido-phenyl)-propionamide] | –
342 | 3.4 | CC(C(=O)NCc1ccc(C(F)(F)F)nc1OCC1CCN(C(=O)OC(C)(C)C)CC1)c1ccc(NS(C)(=O)=O)c(F)c1 (stereo not drawn) [Example 327, 4-(3-{[2-(3-fluoro-4-methylsulfonamido-phenyl)-propionylamino]-methyl}-6-trifluoromethyl-pyridin-2-yloxymethyl)-piperidine-1-carbonic acid tert-butyl ester] | –
– | 2.8 | Cc1ccc(Oc2nc(C(F)(F)F)ccc2CNC(=O)C(C)c2ccc(NS(C)(=O)=O)c(F)c2)cc1 (stereo not drawn) [Example 345, 2-(3-fluoro-4-methylsulfonamido-phenyl)-N-(2-p-tolyloxy-6-trifluoromethyl-pyridin-3-ylmethyl)-propionamide] | inhibition at 0.1 µM [1]: 3%; inhibition at 1 µM ([1]; @ 1 μM, ne = no effect): 38%; inhibition at 5 µM [1]: 45%
36 | 1.1 | CC(C(=O)NCc1ccc(C(F)(F)F)cc1-c1ccc(C(C)(C)C)cc1)c1ccc(NS(C)(=O)=O)c(F)c1 (stereo not drawn) [Example 320, N-(4′-tert-butyl-5-trifluoromethyl-biphenyl-2-ylmethyl)-2-(3-fluoro-4-methylsulfonamido-phenyl)-propionamide] | –
– | 1.1 | CCC(CC)Oc1nc(C(F)(F)F)ccc1CNC(=O)C(C)c1ccc(NS(C)(=O)=O)c(F)c1 (stereo not drawn) [Example 335, N-[2-(1-ethyl-propoxy)-6-trifluoromethyl-pyridin-3-ylmethyl]-2-(3-fluoro-4-methylsulfonamido-phenyl)-propionamide] | inhibition in percent, IC50 (human) after pH stimulus ([1]; @ 1 μM, ne = no effect): ne @ 1 μM
128 | 0.8 | CCCCCOc1nc(C(C)(C)C)ccc1CNC(=O)C(C)c1ccc(NS(C)(=O)=O)c(F)c1 (stereo not drawn) [Example 328, N-(6-tert-butyl-2-pentyloxy-pyridin-3-ylmethyl)-2-(3-fluoro-4-methylsulfonamido-phenyl)-propionamide] | –
– | 0.7 | CCCN(CCC)c1nc(C(F)(F)F)ccc1CNC(=O)C(C)c1ccc(NS(C)(=O)=O)c(C)c1 (stereo not drawn) [Example 331, N-(2-dipropylamino-6-trifluoromethyl-pyridin-3-ylmethyl)-2-(4-methylsulfonamido-3-methyl-phenyl)-propionamide] | inhibition at 10 µM [1]: 31%
99 | 0.7 | CC(C(=O)NCc1ccc(C(F)(F)F)nc1C1=CCCCC1)c1ccc(NS(C)(=O)=O)c(F)c1 (stereo not drawn) [Example 334, N-(2-cyclohex-1-enyl-6-trifluoromethyl-pyridin-3-ylmethyl)-2-(3-fluoro-4-methylsulfonamido-phenyl)-propionamide] | –
